Test results from patent US7390510B2, “Preparation of hypericin bonded with poly-N-vinylamides” (Sanochemia Pharmazeutika AG, priority 2000, dated 2008).

Assays:
[1] = Time-dependent solubility of hypericin after complexation by PVP (absorption and fluorescence, FIG. 1); type: physicochemical
[2] = in vivo; cited from earlier work

Cc1cc(O)c2c(=O)c3c(O)cc(O)c4c5c(O)cc(O)c6c(=O)c7c(O)cc(C)c8c1c2c(c34)c(c78)c65 [hypericin]
solubility state in aqueous environment ([1]; aqueous solution, with or without PVP): forms at once insoluble aggregates
absorption in the relevant spectral region ([1]; aqueous, hypericin+PVP after 30, 60, 180 minutes): no absorption
biological half-life [2]: 34-38 h
